# According to patent US20170056381A1, “PYRIDOXAMINE FOR THE TREATMENT OF SICKLE CELL DISEASE, THALASSEMIA AND RELATED BLOOD DISEASES” (NANOMETICS LLC, priority 2014, published 2017):
# Assays:
# Format in all cases: in vivo, mouse
# NY1DD mice = assay: Hypoxia/reoxygenation in NY1DD mice, intravital microscopy of cremaster venules
# Procedure: NY1DD mice (2×n=6) were exposed to hypoxia for 16 h (gas mixture=10% O2, 0.5% CO2 and balance N2). One group of NY1 DD was then be given an intraperitoneal (i.p.) dose of pyridoxamine (400 mg/kg), dissolved in phosphate buffered saline (PBS), prior to 3 h reoxygenation in ambient conditions. The second group of NY1 DD mice was put through the same hypoxia/reoxygenation process and given vehicle (PBS) as a negative control. Healthy C57 BL/6J mice were used as healthy controls and were not exposed to hypoxia/reoxygenation stress. At the end of the reoxygenation period, the cremaster muscle was excised for intravital microscopy analysis. Intravital microscopy: Mice were anesthetized i.p. with 10% urethane and 2% α-chloralose in saline (6 ml/kg). The animals were tracheotomized and the left carotid artery cannulated to monitor systemic arterial pressure. The open cremaster muscle was prepared according to the method of Baez. The surface of the open cremaster muscle was suffused with a bicarbonate Ringer's solution of the following millimolar composition: NaCl 135.0, KCl 5.0, NaHCO3 27.0, MgCl2 0.64 and glucose 11.6. pH was adjusted to 7.35-7.4 by continuous bubbling with […]. The osmolarity of the solution, as measured by a Microosmette (Precision Systems, Inc., Sudsbury, MA) was 320 mOsm which is similar to that reported for the mouse plasma. The cremaster muscle preparation was allowed to stabilize for 30 min before the initiation of the experiment. The temperature of the suffusion solution (flow rate, 5-6 ml/min) bathing the cremaster was maintained at 34.5-35° C. and monitored by a telethermometer (YSI Inc., Yellowsprings, Ohio) during the entire experiment. Oxygen tension of the suffusion solution bathing the tissue was determined using a microoxygen electrode (model MI-730; Microelectrodes Inc., Bedford, N.H.). Microscopic observations were carried out using microscope (model BH-2; Olympus Corp., Lake Success, N.Y.) equipped with a television camera (5000 Series; Cohu, Inc., San Diego, Calif.) and a Sony U-matic video recorder (model V05800; Sony Corp., Teaneck, N.J.). Identification of venules and arterioles for observation was determined according to the published procedure. Vessel luminal diameter was measured on-line by image shearing using an image shearing device (model 907; Instruments for Physiology and Medicine, San Diego, Calif.). Red cell velocity (Vrbc) was measured along the vessel centerline using the dual-slit photodiode technique of Wayland and Johnson […]. The dual-slit photo detector was placed over the projected image of the vessel and on-line analysis of the optical signals was performed using a cross-correlator as described by Tompkins et al. (Model 102 BF; instruments for Physiology and Medicine). Vrbc measurements were made using a water immersion ×40 objective and ×6.3 eyepiece. The wall shear rates were calculated from the mean Vrbc (Vmean) and vessel diameter. The centerline Vrbc was converted to the mean red cell velocity across the vessel diameter using a conversion factor of 1.6 (Vrbc/Vmean=1.6) originally described by Baker and Wayland. Shear rates along the wall of microvessel of a given internal diameter (D) were calculated using the relationship: Wall shear rate=8 Vmean/D. Estimates of volumetric flow rates (Q) were made from Vmean and the vessel cross-sectional area (π D^2/4). Rolling leukocytes were defined as those leukocytes that distinctly roll along the endothelial surface. The rolling leukocytes were easily distinguished because of their lower velocity compared with that of leukocytes and red cells in the flow. Rolling leukocyte velocity (μm/s) represented the time required for a rolling leukocyte to traverse a given length of venule. An average of rolling velocities of approximately ten leukocytes per venule was determined by frame-by-frame analysis of video replay. […]
# Berkeley mice [1] = assay: BOLD MRI during hyperoxia challenge (tissue oxygenation, deoxyHb/oxyHb ratio) in Berkeley mice; details: single oral dose 400 mg/kg, gavage
# Procedure: Experimental Design & Methods: Dose Efficacy Experiment: A single oral dose (gavage) of pyridoxamine (400 mg/kg) was administered to BERK mice (n=6) or C57bl WT mice (n=4) and CBF and deoxyHb levels measured (see below for Measurement Parameters) before treatment and 2 h, 24 h, 72 h, 5 days and 9 days after treatment. Measurement Parameters: Each animal was assessed for several parameters by magnetic resonance imaging (MRI) methods on a 9.4 T Agilent MRI system. The primary MRI methods included brain and muscle perfusion, water diffusivity and oxygenation. Data acquisition was by multi-shot (8) Echo Planer Imaging (msEPI) (segmented and interleaved). Perfusion data were acquired using amultislice FAIR-Quipps approach, and blood oxygenation was determined from T2w msEPI (BOLD). Inflammation was inferred from the mean diffusivity of water calculated from a Diffusion Tensor Imaging (DTI) measurement which estimates the apparent diffusion coefficient of water (ADC). Transverse relaxation (T2) will be assessed for tissue free-water content using 30 echos (TE: 1.3 ms-240 ms) using multiecho-spin echo approaches. Longitudinal relaxation (T1) is assessed using EPI-inversion recovery (T1: 0.1 s-7 s, TR 8 s). Tissue Oxygenation: Bold Oxygen Level Dependent (BOLD) measurements were made during a hyperoxia challenge. MRI begins while animals are exposed to 20% O2/80% N2 (6 min) and imaging continues while the inspired gas is switched to 100% O2, maintained for 6 minutes, then returned to normal room air levels. […] Perfusion measurements: Quantitative perfusion measurements (FAIR-Quipps) employ a volume coil for arterial labeling, and surface coil for signal measurement, and a TI of 1200 ms. […]
# Data Analysis & Interpretation: All images are co-registered to a template using FSL tools (FMRIB Software library, Oxford, UK). […] Perfusion, BOLD activation ratios and metabolite ratios were calculated using MATLAB (Mathworks, Natick, Mass.). Parameter maps were calculated using a non-linear least squares in Matlab, or using the FMRIB FSL-based Diffusion Toolbox (DTIFIT). […]
# Berkeley mice [2] = assay: MRI perfusion (FAIR-Quipps) cerebral blood flow in Berkeley mice
# Procedure: Experimental Design & Methods: Dose Efficacy Experiment: A single oral dose (gavage) of pyridoxamine (400 mg/kg) was administered to BERK mice (n=6) or C57bl WT mice (n=4) and CBF and deoxyHb levels measured (see below for Measurement Parameters) before treatment and 2 h, 24 h, 72 h, 5 days and 9 days after treatment. Measurement Parameters: Each animal was assessed for several parameters by magnetic resonance imaging (MRI) methods on a 9.4 T Agilent MRI system. The primary MRI methods included brain and muscle perfusion, water diffusivity and oxygenation. Data acquisition was by multi-shot (8) Echo Planer Imaging (msEPI) (segmented and interleaved). Perfusion data were acquired using amultislice FAIR-Quipps approach, and blood oxygenation was determined from T2w msEPI (BOLD). Inflammation was inferred from the mean diffusivity of water calculated from a Diffusion Tensor Imaging (DTI) measurement which estimates the apparent diffusion coefficient of water (ADC). Transverse relaxation (T2) will be assessed for tissue free-water content using 30 echos (TE: 1.3 ms-240 ms) using multiecho-spin echo approaches. Longitudinal relaxation (T1) is assessed using EPI-inversion recovery (T1: 0.1 s-7 s, TR 8 s). Tissue Oxygenation: Bold Oxygen Level Dependent (BOLD) measurements were made during a hyperoxia challenge. MRI begins while animals are exposed to 20% O2/80% N2 (6 min) and imaging continues while the inspired gas is switched to 100% O2, maintained for 6 minutes, then returned to normal room air levels. BOLD image signal intensity (echo-planer T2* weighted imaging) is inversely sensitive to deoxyHb levels, such that an increase in deoxyHb/oxyHb ratio causes a decrease in BOLD signal, while a decrease in this ratio causes an increase in BOLD signal intensity. Perfusion measurements: Quantitative perfusion measurements (FAIR-Quipps) employ a volume coil for arterial labeling, and surface coil for signal measurement, and a TI of 1200 ms. Water diffusion coefficient: DTI data were collected using a 7 direction assessment, from which both the mean diffusivity (DTI-MD) and fractional anisotropy (DTI-FA) were obtained. DTI-FA provides a measure of white matter integrity and DTI-MD, along with tissue T2 provides a measure of tissue inflammation.
# Data Analysis & Interpretation: All images are co-registered to a template using FSL tools (FMRIB Software library, Oxford, UK). The template was constructed of an averaged high-resolution averaged T2-weighted image from 3 co-registered BERK mice, or 3 co-registered C57bl mice. Regions of interest (ROI's) were drawn from standard atlases (Paxonis) on the template, and include white matter (CC and External Caudate), gray matter (Somatosensory, Motor, Frontal, Parietal) Cortex, hippocampus, basal ganglia, cingulate, and others) and cranial muscle from the anterior region of the head. Image data was converted from native format to NIFTI format, intensity flattened, phase corrected, orientation corrected, and registered to the template. Perfusion, BOLD activation ratios and metabolite ratios were calculated using MATLAB (Mathworks, Natick, Mass.). Parameter maps were calculated using a non-linear least squares in Matlab, or using the FMRIB FSL-based Diffusion Toolbox (DTIFIT). Registration was accomplished using the FSL-FLIRT routine. […]
# Berkeley mice [3] = assay: Hypoxia/reoxygenation in Berkeley mice, intravital microscopy; details: single i.p. dose; Berkeley mice exposed to hypoxic stress
# [4] = single i.p. dose 400 mg/kg, 16 h hypoxia, 3 h reoxygenation, cremaster venules
smiles,measurement,setting,value
Cc1ncc(CO)c(CN)c1O [pyridoxamine],change in venule diameter,"NY1DD mice; single i.p. dose 400 mg/kg, 16 h hypoxia, 3 h reoxygenation, 400 mg/kg",minimal change
same,decrease in leukocyte adhesion,NY1DD mice; [4],84%
same,decrease in leukocyte emigration,NY1DD mice; [4],95%
same,decrease in rolling leukocytes,NY1DD mice; [4],24%
same,increase in red blood cell flow velocity (Vrbc),NY1DD mice; [4],42%
same,increase in wall shear rate,NY1DD mice; [4],92%
same,hypoxia/reoxygenation induced endothelial activation,"NY1DD mice; single i.p. dose, NY1DD mice exposed to hypoxic stress",ameliorated
same,deoxygenated hemoglobin/oxygenated hemoglobin ratio in brain after treatment,Berkeley mice [1]; 72 h after treatment,significant decrease
same,time of maximum effect on brain deoxyHb/oxyHb ratio (BOLD),Berkeley mice [1]; brain,72 h
same,time of maximal effect on cranial muscle BOLD signal (oxyhemoglobin increase),Berkeley mice [1]; cranial muscle,72 h
same,time of maximum effect on cerebral blood flow (CBF),"Berkeley mice [2]; single oral dose 400 mg/kg, gavage",72 h
same,effect on cerebral blood flow (CBF),"Berkeley mice [2]; single oral dose 400 mg/kg, gavage, versus C57 wild type",normalized the CBF to near wild type
same,time of maximum response of brain perfusion,Berkeley mice [2]; single oral dose 100-400 mg/kg,72 h
same,effect on perfusion in the brain,"Berkeley mice [2]; single oral dose 100-400 mg/kg, versus wild type C57BL mice",normalized perfusion in the brain of Berkeley mice to wild type values
same,duration of sustained effects of treatment,"Berkeley mice [2]; transgenic mouse models of SCD, single dose",up to 9 days
same,hypoxia/reoxygenation induced endothelial activation,Berkeley mice [3],ameliorated
